Data published in patent US20120283096A1, “AGENT FOR IMPROVING PLANT GROWTH, SEEDS, AND METHOD FOR IMPROVING PLANT GROWTH” (Incorporated Administrative Agency National Agricu lture …, priority 2010, published 2012).

Key:
[1] = system: barley; experiment: Seedling establishment of barley seeds in humid soil (Example 6-1, FIG. 20a); assay type: in vivo; conditions: 0.01 mmol to 0.5 mmol molybdenum per gram of dry seed, 20° C., after two weeks
Method: (§1) As in Example 4-1, ammonium sulfate in an equivalent amount of 10 g/m^2 in terms of nitrogen and potassium chloride equivalent to 5 g/m^2 of potassium as potassium oxide were added as a solution to paddy humid soil in terms of 100 kg/m^2 of dry soil with a soil-to-liquid ratio of 0.7. The soil was placed into each container (in the shape of a cylinder approximately 7 cm in diameter) in an amount equivalent to 100 g of dry soil. The soil surface was flattened by giving it a slight press with a flat plate. Then, the soil was left at rest for one day at 4° C. […] The seeds were then half-buried in the soil. After that, at a constant temperature of 20° C., the water level was kept by adding water to such an extent that the seeds were slightly covered with water. Six containers were allotted for each condition, and the proportion of seedling establishment (proportion of individual plants that survived) was measured after two weeks. It should be noted that in each of FIGS. 20a and 20b, the horizontal axis represents the number of moles (mmol) of molybdenum that adhered per gram of dry seed. In each of FIGS. 20a and 20b, the dots correspond to the numbers of moles of 0, 0.01, 0.02, 0.05, 0.1, 0.2, and 0.5 mmol, starting from the left. […]

[2] = system: decay of paddy seeds; experiment: Decay-inhibiting effect in tank farming without soil (Example 3); conditions: seeds covered with substance, soaked two weeks in water at 30° C.
Method: (§2) The decay-inhibiting effect of molybdenum-containing substances in tank farming without soil was examined.
(§3) The possibility of growth and the inhibition of decay were determined in the same manner as above.

[3] = system: paddy rice; experiment: Seedling establishment of coated paddy seeds planted in a paddy field (Example 4-5, FIG. 22); assay type: in vivo; conditions: dry seeds coated with clay plus 0.1 mmol/g molybdenum; kept submerged, about one month after seeding; versus WITHOUT MATERIAL and oxygen generating agent (Cal)
Method: Dry paddy seeds (branded as Hinohikari) were prepared.
Separately, dry seeds (WITHOUT MATERIAL) coated solely with clay containing no molybdenum were also prepared. Furthermore, dry seeds (Cal) coated with an oxygen generating agent (Calper Powder 16, Hodogaya UPL Co., Ltd.) the same weight per dry seeds were also prepared. Calper Powder 16 is an oxygen generating agent composed mainly of calcium peroxide.
These dry seeds were planted in puddled soil in a paddy field in Chikugo City, Fukuoka Prefecture, by using a simultaneous puddling and planting point sowing machine. By preparing the seeds as described above and planting them by using a point sowing machine, the amount of seeding per unit area of the paddy field can be substantially uniformed. It should be noted that prior to soil puddling, 4 g/m^2 of ammonium sulfate as nitrogen and potassium sulfate containing potassium equivalent to 8 g/m^2 as potassium oxide had been applied to the paddy field. After seeding, the seeds were kept submerged without draining the water.

[4] = system: paddy rice; experiment: Seedling establishment of coated paddy seeds in submerged soil containers (Examples 4-1 to 4-4b, FIGS. 11, 14-19c); assay type: in vivo
Method: The germinated paddy seeds were soaked for one minute in a tenfold diluted solution of a commercially available laundry starch (manufactured by Rocket Soap Co., Ltd.; My Laundry Starch) containing approximately a little less than 10% by weight of polyvinyl alcohol, centrifuged at 1000 rpm for removal of the extra solution, and, immediately after that, lightly covered with different amounts of ammonium molybdophosphate, whereby seeds with different amounts of ammonium molybdophosphate were prepared.
(§4) It should also be noted that in each of FIGS. 14 through 15b, the horizontal axis represents the number of moles (mmol) of molybdenum or tungsten that adhered per gram of dry seed. In each of FIGS. 14 through 15b, the dots correspond to the numbers of moles of 0, 0.02, 0.05, 0.1, 0.2, 0.5, 1, and 2 mmol, starting from the left.
as §4, with “should” for “should also”, “16” for “14”, “18,” for “15b,”, “molybdenum” for “molybdenum or tungsten”
It should be noted that in FIG. 19a, the horizontal axis represents the number of moles (mmol) of molybdenum that adhered per gram of dry seed. In FIG. 19a, the dots correspond to the numbers of moles of 0, 0.02, 0.05, 0.1, 0.2, 0.5, 1, and 2 mmol, starting from the left.
The resulting seeds were allowed to spend time in a sufficiently wet condition so that the iron rusted, and then allowed to further spend overnight. […] Six containers were allotted for each condition, and the proportion of seedling establishment and the standard error were examined. It should be noted that in FIG. 19b, the horizontal axis represents the number of moles (mmol) of molybdenum that adhered per gram of dry seed. In FIG. 19b, the dots correspond to the numbers of moles of 0, 0.02, 0.05, 0.1, 0.2, 0.5, 1, and 2 mmol, starting from the left.
Six containers were allotted for each condition, and the proportion of seedling establishment and the standard error were examined. It should be noted that in FIG. 19c, the horizontal axis represents the actual weight ratios of 25 wt % calcium peroxide that adhered with respect to the weight of dry seed. In FIG. 19c, the dots correspond to the actual weight ratios of 25 wt % calcium peroxide of 0, 0.01, 0.02, 0.05, 0.1, 0.2, 0.5, and 1 time, starting from the left.

[5] = system: paddy seeds; experiment: Possibility of growth of paddy seeds in tank farming without soil (Example 3); conditions: in vivo
Method: as §2, §3

[6] = system: wheat; experiment: Seedling establishment of wheat seeds in humid soil (Example 6-1, FIG. 20b); assay type: in vivo; conditions: 0.01 mmol to 0.5 mmol molybdenum per gram of dry seed, 20° C., after two weeks
Method: as §1

[7] = system: soybean; experiment: Seedling establishment of soybean seeds submerged for two days (Example 6a-1, FIG. 20e); assay type: in vivo; conditions: 0.01 mmol to 0.5 mmol molybdenum per gram of dry seed, 25° C., versus untreated seeds
Method: Soil was prepared in the same manner as in Example 6-1. Next, soybean seeds (branded as Fukuyutaka) not subjected to treatment such as soaking in advance were soaked for one minute in a tenfold diluted solution of a commercially available laundry starch (manufactured by Rocket Soap Co., Ltd.; My Laundry Starch) containing approximately a little less than 10% by weight of polyvinyl alcohol. Then, the seeds were spin-dried for thirty seconds in a commercially available washing machine for removal of the extra water. […] These seeds were buried so that the upper edge of each seed was at the same height as the soil surface. In an artificially-lit (amount of light 0.4 mmol/m^2/s, lit for twelve hours per day) room at 25° C., water was added immediately after seeding so that the surface water was 15 mm high. After two days, the surface water was sucked up with a pipette for removal. Six containers were allotted for each condition, and the proportion of seedling establishment (proportion of individual plants that survived) was measured two weeks after seeding. It should be noted that in FIG. 20e, the horizontal axis represents the number of moles (mmol) of molybdenum that adhered per gram of dry seed. In FIG. 20e, the dots correspond to the numbers of moles of 0 (UNTREATED), 0.01, 0.02, 0.05, 0.1, 0.2, and 0.5 mmol, starting from the left. […]

[8] = system: paddy rice; experiment: Effect of sulfate ions in paddy soil on seedling establishment (Example 1-1, FIG. 1); assay type: in vivo
Method: The effect of concentrations of sulfate ions, which serve as a substrate for sulfide ions, in the soil solution on the percentage of seedling establishment were examined for each of the following cases: unsterilized paddy soil placed at a constant temperature of 20° C.; unsterilized paddy soil placed at a constant temperature of 30° C., unsterilized paddy soil placed in an outdoor location (at a mean temperature of 25.4° C. for the duration of examination); and sterilized paddy soil placed at a constant temperature of 20° C.
First, ammonium sulfate solutions in different concentrations were added to samples of paddy humid soil (obtained from a paddy field in Chikugo City, Fukuoka Prefecture, Japan; refrigerated in the form of humid soil until just before its use) with a soil-to-liquid ratio of 1:1.5, so that the resulting supernatant liquids above the samples of soil thus adjusted had varying concentrations of sulfate ions. The amounts of ammonium sulfate added to the samples of soil were equivalent to 0, 2, 4, 7, 10, 15, and 20 g/m^2 in terms of nitrogen, respectively, on the condition that the weight of dry soil is 100 kg/m^2. At the same time as ammonium sulfate, potassium in an amount of 5 g/m^2 in terms of potassium oxide was added as potassium chloride. Before the addition of the solutions to the samples of soil, some of the soil had been sterilized by being autoclaved for one hour at 121° C.
Each of the samples of soil thus adjusted was placed into a container (in the shape of a cylinder approximately 7 cm in diameter) in an amount equivalent to 120 g of dry soil, shaken for approximately one hour, and left at rest for two days at 4° C. On this condition, the resulting soil layer was approximately 4 cm thick and the resulting water layer above the soil surface was approximately 1 cm thick. Paddy rice seeds (branded as Hinohikari) were sterilized by being soaked in 70% ethanol for ten minutes and then in a fivefold diluted solution of sodium hypochlorite (purchased from Wako Pure Chemical Industries, Ltd.) for ten minutes. The paddy rice seeds were then slightly germinated by being soaked in water at 10° C. for five days and then in water at 30° C. for two days. The germinated unhusked rice thus obtained was used in the following testing.
Nine paddy rice seeds per container were planted at a depth of 15 mm at intervals of approximately 2 cm in each of the samples of soil thus adjusted, and the seed holes were closed by lightly shaking the sample of soil. The samples of unsterilized soil were left at rest at a constant temperature of 20° C. or 30° C., and the samples of sterilized soil were left at a constant temperature of 20° C. in incubators in which fluorescent lights were on for twelve hours per day. […]

[9] = system: sulfide ion generation; experiment: Blackening (ferric sulfide) of areas around paddy seeds versus sulfate ion concentration (FIG. 2); conditions: unsterilized soil, 30° C., one week after seeding, supernatant concentration
Method: In the same manner as above, ammonium sulfate was applied to samples of unsterilized soil in amounts of 0, 0.75, 1.5, and 3 mol/m^2, respectively, and the samples of unsterilized soil were placed at rest at a constant temperature of 30° C. The supernatant liquids obtained after shaking the samples of soil thus adjusted had sulfate ion concentrations shown in FIG. 2. However, since methylene blue decolorizes in a reduced state, methylene blue weighing 0.1% of dry soil was added to each sample of soil so that a reduced state of the soil could be detected. […] It should be noted that methylene blue is known to decolorize at an oxidation-reduction potential of 0.05 V or lower with a pH of approximately 6. […] Therefore, it is judged that in this experimental environment, an oxidation-reduction potential as normalized with a pH of 7 is at least temporarily 0 mV or lower.

Structure (SMILES) | proportion of seedling establishment [1] | Inhibition of decay, Amount of molybdenum or tungsten added to seed [2] [mmol/g] | seedling establishment [3] | molybdenum amount leading to improvements in seedling establishment ([4]; dry seeds coated with mixture with reduced iron (half the weight of dry seeds), 30° C., FIG. 19b) [mmol/g] | proportion of seedling establishment ([4]; dry seeds, mixture of 0.1 mmol/g molybdenum oxide and 25 wt % calcium peroxide at 0.1 or less time the weight of dry seed, 30° C.) [%] | proportion of seedling establishment ([4]; mixture of 0.1 mmol/g molybdenum oxide and 25 wt % calcium peroxide at 0.2 to 0.5 time the weight of dry seed, versus absence of molybdenum oxide) | Possibility of growth, Amount of molybdenum or tungsten added to seed [5] [mmol/g] | proportion of seedling establishment [6] | proportion of seedling establishment [7] | seedling establishment ([8]; sterilized soil, 20° C., regardless of sulfate ion concentration) | seedling establishment ([8]; unsterilized soil, constant 20° C., sulfate ion concentration higher than 2 mM, after 21 days) | proportion of seedling establishment ([8]; unsterilized soil, constant 30° C. or outdoor, sulfate ion concentration higher than 3 mM, after 21 days) [%] | proportion of seedling establishment ([8]; unsterilized soil, sulfate ion concentration of 1 mM, regardless of the conditions (20° C., 30° C., outdoor), after 21 days) | sulfate ion concentration at which a blackened portion (ferric sulfide) appears around the seed [9] [mM]
[O]=[Mo](=[O])=[O] [Molybdenum oxide, Molybdenum oxide (VI)] | improvements in proportion of seedling establishment | <0.01 | obvious improvements in seedling establishment | ≥ 0.5 | ≥ 40 | higher proportion of seedling establishment | 0.07 | improvements in proportion of seedling establishment | improvements in proportion of seedling establishment |  |  |  |  | 
N.N.O=S(=O)(O)O [sulfate ions, ammonium sulfate] |  |  |  |  |  |  |  |  |  | no decrease in seedling establishment | substantially no seedling establishment | ≤ 10 | drastic decreases in proportion of seedling establishment | ≥ 0.91
